Where two headings read alike, the source gives them in different places.
Experiments:
Assay type in all cases: in vivo
[1] = test system: Pharbitis purpurea (PHBPU); assay: Pre-emergence herbicidal action against PHBPU
Method in brief: (§1)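 Herbicide applied to soil before seedling emergence, at 600 l/ha spray volume with 0.5% additive and rates up to 320 g/ha. Evaluation: visual percentage effect, about 3 weeks later, greenhouse-grown pots compared with untreated ones.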

Zea mays (ZEAMX) = test system: Zea mays (ZEAMX)
Method in brief: (§2)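 Greenhouse crops in sandy loam sprayed post-emergence at the one-leaf stage, 2–3 weeks after sowing, with WP or EC formulations in water plus 0.5% additive at 600 l/ha. Damage rated visually about 3 weeks later versus untreated controls (0% = like control, 100% = dead); suffixes a–c denote different doses.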

Oryza sativa (ORYSA) = conditions: crop plant compatibility
Method in brief: as §2

[2] = test system: Alopecurus myosuroides (ALOMY); assay: Post-emergence herbicidal action against ALOMY; conditions: visual rating about 3 weeks after treatment vs untreated controls (100% = plants have died, 0% = like control plants)
Method in brief: (§3)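 Greenhouse plants sprayed at the one-leaf stage, 2–3 weeks after sowing, with WP or EC formulations plus 0.5% additive at 600 l/ha water. Activity rated visually after about 3 weeks versus untreated controls (100% = dead, 0% = like control), at 320 g/ha or lower.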

[3] = test system: Verconica persica (VERPE); assay: Pre-emergence herbicidal action against VERPE; conditions: dosage 320 g/ha
Method in brief: as §1

[4] = test system: Echinochloa crus-galli (ECHCG); assay: Pre-emergence herbicidal action against ECHCG
Method in brief: as §1

[5] = test system: Polygonum convolvulus (POLCO); assay: Post-emergence herbicidal action against POLCO
Method in brief: as §3

[6] = test system: Amaranthus retroflexus (AMARE); assay: Post-emergence herbicidal action against AMARE
Method in brief: as §3

Lolium rigidum (LOLRI) [7] = assay: Pre-emergence herbicidal action against LOLRI
Method in brief: as §1

Viola tricolor (VIOTR) [8] = assay: Pre-emergence herbicidal action against VIOTR
Method in brief: as §1

[9] = test system: Amaranthus retroflexus (AMARE); assay: Pre-emergence herbicidal action against AMARE; conditions: visual scoring after about 3 weeks vs untreated controls
Method in brief: as §1

[10] = test system: Echinochloa crus-galli (ECHCG); assay: Post-emergence herbicidal action against ECHCG
Method in brief: as §3

[11] = test system: Pharbitis purpurea (PHBPU); assay: Post-emergence herbicidal action against PHBPU
Method in brief: as §3

Avena fatua (AVEFA) [12] = assay: Post-emergence herbicidal action against AVEFA; conditions: visual rating about 3 weeks after treatment
Method in brief: as §3

Setaria viridis (SETVI) [13] = assay: Pre-emergence herbicidal action against SETVI
Method in brief: as §1

[14] = test system: Verconica persica (VERPE); assay: Post-emergence herbicidal action against VERPE
Method in brief: as §3

[15] = test system: Polygonum convolvulus (POLCO); assay: Pre-emergence herbicidal action against POLCO
Method in brief: as §1

[16] = test system: Abutilon theophrasti (ABUTH); assay: Pre-emergence herbicidal action against ABUTH; conditions: 100% = plants have died
Method in brief: as §1

[17] = test system: Matricaria inodora (MATIN); assay: Post-emergence herbicidal action against MATIN
Method in brief: as §3

Setaria viridis (SETVI) [18] = assay: Post-emergence herbicidal action against SETVI
Method in brief: as §3

[19] = test system: Alopecurus myosuroides (ALOMY); assay: Pre-emergence herbicidal action against ALOMY; conditions: scored visually after about 3 weeks, 100% = plants have died
Method in brief: as §1

[20] = test system: Abutilon theophrasti (ABUTH); assay: Post-emergence herbicidal action against ABUTH; conditions: visual rating about 3 weeks after treatment vs untreated controls (100% = plants have died, 0% = like control plants)
Method in brief: as §3

[21] = test system: Matricaria inodora (MATIN); assay: Pre-emergence herbicidal action against MATIN
Method in brief: as §1

Avena fatua (AVEFA) [22] = assay: Pre-emergence herbicidal action against AVEFA; conditions: 320 g/ha, visual scoring after about 3 weeks vs untreated controls
Method in brief: as §1

Viola tricolor (VIOTR) [23] = assay: Post-emergence herbicidal action against VIOTR
Method in brief: as §3

Lolium rigidum (LOLRI) [24] = assay: Post-emergence herbicidal action against LOLRI
Method in brief: as §3

[25] = 80 g/ha, effect in comparison to untreated controls
[26] = Dosage column 320 g/ha (title prints 3200 g/ha), scored visually after about 3 weeks
[27] = 320 g/ha, visual rating about 3 weeks after treatment

O=C(O)COc1nn(-c2ccccn2)c(-c2cncc(F)c2)c1Cl [Example I-81]
Pre-emergence action against PHBPU in % ([1]; dosage 80 g/ha): 90%
Pre-emergence action against PHBPU in % ([1]; dosage 320 g/ha): 100%
Post-emergence action against ZEAMX in % (crop plant compatibility) (Zea mays (ZEAMX); 20 g/ha, ZEAMX, effect in comparison to untreated controls): 0%
Post-emergence action against ZEAMX in % (Zea mays (ZEAMX); crop plant compatibility, 80 g/ha, effect vs untreated controls): 0%
Post-emergence action against ORYSA in % (Oryza sativa (ORYSA); 20 g/ha, effect vs untreated controls): 0%
Post-emergence action against ORYSA in % (Oryza sativa (ORYSA); [25]): 0%
Post-emergence action against ALOMY in % ([2]; 80 g/ha): 90%
Pre-emergence action against VERPE in % [3]: 90%
Pre-emergence action against ECHCG in % ([4]; dosage 80 g/ha): 90%
Pre-emergence action against ECHCG in % ([4]; dosage 320 g/ha): 100%
Post-emergence action against POLCO in % ([5]; dosage 80 g/ha): 80%
Post-emergence action against AMARE in % ([6]; 80 g/ha, visual rating about 3 weeks after treatment vs untreated controls (100% = plants have died, 0% = like control plants)): 90%
Pre-emergence action against LOLRI in % (Lolium rigidum (LOLRI) [7]; dosage 80 g/ha): 90%
Pre-emergence action against LOLRI in % (Lolium rigidum (LOLRI) [7]; dosage 320 g/ha): 100%
Pre-emergence action against VIOTR in % (Viola tricolor (VIOTR) [8]; 320 g/ha, Viola tricolor): 100%
Pre-emergence action against VIOTR in % (Viola tricolor (VIOTR) [8]; dosage 80 g/ha): 80%
Pre-emergence action against AMARE in % ([9]; 80 g/ha): 80%
Pre-emergence action against AMARE in % ([9]; 320 g/ha): 90%
Post-emergence action against ECHCG in % ([10]; dosage 80 g/ha): 90%
Post-emergence action against PHBPU in % ([11]; dosage 80 g/ha): 90%
Post-emergence action against AVEFA in % (Avena fatua (AVEFA) [12]; 80 g/ha): 90%
Pre-emergence action against SETVI in % (Setaria viridis (SETVI) [13]; dosage 80 g/ha): 90%
Pre-emergence action against SETVI in % (Setaria viridis (SETVI) [13]; dosage 320 g/ha): 100%
Post-emergence action against VERPE in % ([14]; dosage 80 g/ha): 90%
Pre-emergence action against POLCO in % ([15]; dosage 80 g/ha): 90%
Pre-emergence action against POLCO in % ([15]; dosage 320 g/ha): 90%
Pre-emergence action against ABUTH [16, 26]: 90%
Post-emergence action against MATIN in % ([17]; dosage 80 g/ha): 90%
Post-emergence action against SETVI in % (Setaria viridis (SETVI) [18]; dosage 80 g/ha): 80%
Pre-emergence action against ALOMY ([19]; 80 g/ha): 80%
Pre-emergence action against ALOMY ([19]; 320 g/ha): 100%
Post-emergence action against ABUTH in % ([20]; 80 g/ha): 80%
Pre-emergence action against MATIN in % ([21]; dosage 80 g/ha): 80%
Pre-emergence action against MATIN in % ([21]; dosage 320 g/ha): 90%
Pre-emergence action against AVEFA in % (Avena fatua (AVEFA) [22]): 80%

O=C(O)COc1nn(-c2nc(F)ccc2F)c(-c2cncc(F)c2)c1Br [Example I-207]
Pre-emergence action against PHBPU in % ([1]; dosage 80 g/ha): 90%
Pre-emergence action against PHBPU in % ([1]; dosage 320 g/ha): 90%
Post-emergence action against ORYSA in % (Oryza sativa (ORYSA); [25]): 10%
Post-emergence action against ALOMY in % ([2]; 320 g/ha): 90%
Pre-emergence action against VERPE in % [3]: 90%
Pre-emergence action against ECHCG in % ([4]; dosage 80 g/ha): 90%
Pre-emergence action against ECHCG in % ([4]; dosage 320 g/ha): 100%
Post-emergence action against AMARE in % [6, 27]: 80%
Pre-emergence action against VIOTR in % (Viola tricolor (VIOTR) [8]; 320 g/ha, Viola tricolor): 100%
Pre-emergence action against VIOTR in % (Viola tricolor (VIOTR) [8]; dosage 80 g/ha): 100%
Pre-emergence action against AMARE in % ([9]; 80 g/ha): 90%
Pre-emergence action against AMARE in % ([9]; 320 g/ha): 100%
Post-emergence action against ECHCG in % ([10]; dosage 80 g/ha): 80%
Post-emergence action against ECHCG in % ([10]; dosage 320 g/ha): 80%
Post-emergence action against PHBPU in % ([11]; dosage 80 g/ha): 80%
Post-emergence action against PHBPU in % ([11]; dosage 320 g/ha): 90%
Pre-emergence action against SETVI in % (Setaria viridis (SETVI) [13]; dosage 80 g/ha): 80%
Pre-emergence action against SETVI in % (Setaria viridis (SETVI) [13]; dosage 320 g/ha): 100%
Post-emergence action against VERPE in % ([14]; 320 g/ha, VERPE): 90%
Post-emergence action against VERPE in % ([14]; dosage 80 g/ha): 80%
Pre-emergence action against POLCO in % ([15]; dosage 80 g/ha): 90%
Pre-emergence action against POLCO in % ([15]; dosage 320 g/ha): 100%
Pre-emergence action against ABUTH [16, 26]: 80%
Post-emergence action against MATIN in % ([17]; dosage 320 g/ha): 80%
Post-emergence action against VIOTR in % (Viola tricolor (VIOTR) [23]; 320 g/ha): 80%
Post-emergence action against SETVI in % (Setaria viridis (SETVI) [18]; dosage 80 g/ha): 90%
Post-emergence action against SETVI in % (Setaria viridis (SETVI) [18]; dosage 320 g/ha): 90%
Pre-emergence action against ALOMY ([19]; 320 g/ha): 80%
Post-emergence action against ABUTH in % ([20]; 320 g/ha): 80%
Pre-emergence action against MATIN in % ([21]; dosage 80 g/ha): 90%
Pre-emergence action against MATIN in % ([21]; dosage 320 g/ha): 90%
Pre-emergence action against AVEFA in % (Avena fatua (AVEFA) [22]): 80%

CCOC(=O)COc1nn(-c2ccccn2)c(-c2ccc(F)nc2)c1Br [Example I-86]
Pre-emergence action against PHBPU in % ([1]; dosage 320 g/ha): 90%
Post-emergence action against ALOMY in % ([2]; 80 g/ha): 100%
Post-emergence action against ALOMY in % ([2]; 320 g/ha): 100%
Pre-emergence action against VERPE in % [3]: 90%
Pre-emergence action against ECHCG in % ([4]; dosage 80 g/ha): 100%
Pre-emergence action against ECHCG in % ([4]; dosage 320 g/ha): 100%
Post-emergence action against POLCO in % ([5]; dosage 320 g/ha): 90%
Post-emergence action against AMARE in % [6, 27]: 90%
Pre-emergence action against LOLRI in % (Lolium rigidum (LOLRI) [7]; dosage 80 g/ha): 100%
Pre-emergence action against LOLRI in % (Lolium rigidum (LOLRI) [7]; dosage 320 g/ha): 100%
Pre-emergence action against VIOTR in % (Viola tricolor (VIOTR) [8]; 320 g/ha, Viola tricolor): 100%
Pre-emergence action against VIOTR in % (Viola tricolor (VIOTR) [8]; dosage 80 g/ha): 80%
Pre-emergence action against AMARE in % ([9]; 80 g/ha): 100%
Pre-emergence action against AMARE in % ([9]; 320 g/ha): 100%
Post-emergence action against ECHCG in % ([10]; dosage 80 g/ha): 100%
Post-emergence action against ECHCG in % ([10]; dosage 320 g/ha): 100%
Post-emergence action against AVEFA in % (Avena fatua (AVEFA) [12]; 320 g/ha): 100%
Pre-emergence action against SETVI in % (Setaria viridis (SETVI) [13]; dosage 80 g/ha): 100%
Pre-emergence action against SETVI in % (Setaria viridis (SETVI) [13]; dosage 320 g/ha): 100%
Post-emergence action against VERPE in % ([14]; 320 g/ha, VERPE): 80%
Pre-emergence action against POLCO in % ([15]; dosage 320 g/ha): 100%
Pre-emergence action against ABUTH ([16]; 80 g/ha, scored visually after about 3 weeks vs untreated controls, 0% = like control plants): 80%
Pre-emergence action against ABUTH [16, 26]: 100%
Post-emergence action against MATIN in % ([17]; dosage 320 g/ha): 80%
Post-emergence action against VIOTR in % (Viola tricolor (VIOTR) [23]; 80 g/ha): 80%
Post-emergence action against VIOTR in % (Viola tricolor (VIOTR) [23]; 320 g/ha): 90%
Post-emergence action against SETVI in % (Setaria viridis (SETVI) [18]; dosage 80 g/ha): 100%
Post-emergence action against SETVI in % (Setaria viridis (SETVI) [18]; dosage 320 g/ha): 100%
Pre-emergence action against ALOMY ([19]; 80 g/ha): 100%
Pre-emergence action against ALOMY ([19]; 320 g/ha): 100%
Post-emergence action against LOLRI in % (Lolium rigidum (LOLRI) [24]; dosage 80 g/ha): 100%
Post-emergence action against LOLRI in % (Lolium rigidum (LOLRI) [24]; dosage 320 g/ha): 100%
Post-emergence action against ABUTH in % ([20]; 80 g/ha): 90%
Post-emergence action against ABUTH in % ([20]; 320 g/ha): 90%
Pre-emergence action against MATIN in % ([21]; dosage 320 g/ha): 100%
Pre-emergence action against AVEFA in % (Avena fatua (AVEFA) [22]): 90%
